One compound from patent publication US11110098B2, “Methods and medicaments for the treatment of renal cell carcinoma” (University of Kansas, priority 2017, dated 2021) can be followed below.

In experiment [1] the test system is Caki-1 cells. In words: Clonogenic assay, Caki-1 cells. Format: cell-based, human. To be noted: 48 h treatment, 10 days growth. How it is done: 786-O and Caki-1 cells were plated at very low density (1,000 cells/well) in six-well plates. After 16 h, cells were treated with different doses of OPC31260 and incubated for 48 h. Cells were washed and grown for 10 days until visible colonies formed. Colonies were fixed with 4% paraformaldehyde in PBS, stained with 0.25% crystal violet in 25% methanol, washed, air-dried and photographed. Crystal violet was dissolved in sodium citrate buffer (0.1M, 50% ethanol, pH 4.2) and absorbance was recorded at 590 nm.

The test system of experiment [2] is Caki-1 cells. In words: TUNEL assay for apoptosis in xenograft tumor sections. It counts as in vivo, Nu/Nu mice. The following applies: OPC31260 IP, tolvaptan 120 mg/Kg oral, dDAVP 1 μg/Kg IP, daily 28 days. How it is done:
(§1) Female Athymic Nude-Foxn1^nu mice (Nu/Nu mice), 7-8 weeks old and weighing ˜25 g were procured from Envigo/Harlan. All animal studies were carried out according to the protocols approved by the University of Kansas Medical Center Institutional Animal Care and Use Committee. Mice were subcutaneously injected on the right flank region with 1×10^6 Caki-1 cells in 100 μl of DMEM medium. One week after injection, palpable tumors appeared and tumor volume was measured with calipers following the formula, Tumor volume=(length×width)/2. Once the tumor volume reached ˜80-100 mm^3, mice were randomized into sub-groups based on the tumor volume. Animals were administered vehicle, OPC31260 (30 mg/Kg BWt.), OPC31260 (60 mg/Kg BWt) or dDAVP (1 μg/Kg BWt.) and vehicle (saline) by daily intraperitoneal injection, or tolvaptan (120 mg/Kg BWt. in 1% aqueous solution of hydroxypropyl methylcellulose-dose derived from previous study^31) or vehicle by daily oral gavage for 28 days. Body weights and tumor volumes were measured every alternate day. At the end of the study, mice were injected with BRDU (100 mg/Kg BWt. by IP) 90 minutes before sacrifice. Tumors were harvested, photographed and weighed. Tumors were flash frozen or paraffin embedded for further analysis.
TUNEL assays were performed to check apoptosis using the in situ Cell Death Detection Kit (Roche Applied Science, Indianapolis, Ind.). Briefly, slides with 5-μm tumor sections were treated to a TUNEL reaction mixture containing terminal deoxynucleotidyl transferase and nucleotides, including tetramethylrhodamine-labeled dUTP. Both Dapi stained and TUNEL-positive nuclei were counted as described for proliferating cell nuclear antigen. All images were captured using a Nikon 80i microscope (Tokyo, Japan) in the KUMC Imaging Center.

Experiment [3] has as its system pERK1/2, ERK1/2, pCREB, CREB, VEGF. In words: Immunoblotting of xenograft tumor lysates. It counts as in vivo, Nu/Nu mice. The following applies: tolvaptan 120 mg/Kg oral. How it is done:
as §1
Tumors from mouse xenografts and cultured 786-O and Caki-1 cells were homogenized in SDS Laemmli buffer and loaded onto 10% SDS-polyacrylamide agarose gel electrophoresis gels, transferred to nitrocellulose membranes and blocked with 5% milk in TBST^32. Membranes were probed with primary antibody followed by wash and horseradish peroxidase secondary antibody application.

Experiment [4] relates to Caki-1 cells. In words: Caki-1 xenograft tumor growth in nude mice. To be noted: OPC31260 30 and 60 mg/Kg. Format: in vivo, Nu/Nu mice. How it is done: as §1, with “One week after injection, palpable tumors appeared and tumor volume was measured with calipers following the formula, Tumor volume=(length×width)/2.” left out
Experiment [5] relates to Caki-1 cells. In words: Annexin V-FITC/PI apoptosis/necrosis, Caki-1 cells. To be noted: 24 h. It counts as cell-based, human. How it is done: (§2) Annexin V-FITC/PI staining was performed for quantification of apoptosis and necrotic cell death using FITC AnnexinV apoptosis detection kit I. Green FITC dye stains apoptotic cells whereas propidium iodide stains necrotic cells with red fluorescence. RCC cells were incubated with OPC31260 for 24 h and washed in cold PBS and resuspended in calcium containing binding buffer (10 mM HEPES, 140 mM NaCl, 5 mM CaCl2; pH 7.4) at a concentration of 1×10^6 cells/ml and stained for 15 min, with 5 μl Annexin V-FITC and 5 μl PI at 1 μg/ml (Cell signaling kit, USA). 10,000 cells were analyzed at an excitation wavelength of 488 nm and emission wavelengths of 530 nm for FITC fluorescence and 610 nm for PI fluorescence. The percentages of viable (Annexin V−PI−), early apoptotic (Annexin V+PI−), late apoptotic/necrotic (Annexin V+PI+) and necrotic cells (Annexin V-PI+) were evaluated with the CellQuestPro® software (Becton, Dickinson, Heidelberg, Germany).

For experiment [6], the system named is Caki-1 cells. In words: MTT cell viability, Caki-1 cells. The following applies: Homo sapiens, 48 h, read-out: dose at which cell viability declined by 50%. Format: cell-based. How it is done:
MTT assays were performed to measure cell viability. Briefly, exponentially growing 786-O and Caki-1 cells were seeded in 96 well plates. After 24 h, cells were incubated with different doses of OPC31260 for 48 h. The cells were then incubated in MTT solution (5 mg/mL) for 2 h, following which the MTT solution was removed and the intracellular purple formazan was solubilized in DMSO and quantified by spectrophotometry at […].

The next experiment relates to 786-O cells. In words: Annexin V-FITC/PI apoptosis/necrosis, 786-O cells. Format: cell-based, human. To be noted: 24 h. How it is done:
as §2

Setting [7] is: OPC31260 30/60 mg/kg IP, dDAVP 1 μg/Kg IP, 28 days.

In the case of `Cc1ccccc1C(=O)Nc1ccc(C(=O)N2CCCC(N(C)C)c3ccccc32)cc1` (centres unmarked) [OPC31260, 5-(dimethylamino)-1-[4-(2-methylbenzamido)benzoyl]-2,3,4,5-tetrahydro-1H-benzazepine], in the experiment with Caki-1 cells [1], the “dose from which a significant decline in colony formation was observed” value is 10 µM. In the experiment with Caki-1 cells [2], the “TUNEL staining of tumors compared to vehicle” value is given as “increased”. In addition, in experiment [3] (OPC31260 30/60 mg/kg IP, 28 days), the “CREB levels in tumor lysates” value is “reduced”. In experiment [3] (setting [7]), the “pCREB levels in tumor lysates” value is reported as “reduced” and the “pERK1/2 levels in tumor lysates” value is reported as “reduced”. The “VEGF protein levels in tumors compared to vehicle” value in experiment [3] (OPC31260 IP, dDAVP 1 μg/Kg IP, daily 28 days) is “significantly reduced”. In addition, the tumor volume entry in the experiment on Caki-1 cells [4] (daily intraperitoneal injections, 28 days) is “failed to show a significant increase”. Also, in the experiment on Caki-1 cells [4] (daily intraperitoneal, after 28 days), the “tumors at sacrifice versus vehicle (tumor weights, FIG. 2)” value is given as “significantly smaller than in the vehicle treatment group”. Besides, in the experiment on Caki-1 cells [5], the apoptosis result was “increase in apoptosis”. Further, in the experiment on Caki-1 cells [6], the IC50 fell in the range of 5 to 10 µM. Also, the apoptosis result in the experiment on 786-O cells is listed as “increase in apoptosis”.
